Key:
[1] = tested on: BR canine mastocytoma cells; assay: Proliferation of BR cells, XTT-based assay; format: cell-based; conditions: for % (percent of maximal proliferation, cells only) / Averages (XTT-based assay reading): 72 hours; for Averages (XTT-based assay reading): triplicate
Description: (§1) Cell lines: BR and C2 canine mastocytoma cells lines were obtained from Dr. George Caughey (University of California at San Francisco, San Francisco, Calif.). Both cell lines were maintained in DMEM supplemented with 2% bovine calf, 1 mM L-glutamine, 12.5 mM HEPES (pH 7.5), 0.25 mg/ml Histidine, 1% Penicillin-Streptomycin and 1% fungizone. The BR and C2 cells were derived from canine mast cell tumors and were originally established in long-term culture after initial passaging in immunodeficient mice (DeVinney R et al., Am J Respir Cell Mol Biol 1990; 3(5):413-420; Lazarus S C et al., Am J Physiol 1986; 251(6 Pt 1):C935-C944). The BR cell line has a point mutation (T1752C) resulting in a Leucine to Proline substitution at amino acid 575 (juxtamembrane domain). The C2 cell line has an internal tandem duplication (ITD) of the KIT juxtamembrane region. The translation of this ITD results in reduplication of amino acid residues at the 3′ end of exon 11 (London et al., Exp. Hematol., Vol. 27, No. 4, pp. 689-697 (1999); Ma et al., J. Invest. Dermatol., Vol. 112, No. 2, pp. 165-170 (1999)).
(§2) Proliferation assays: Cells were added to 96-well plates at a density of 40,000 cells/well in normal culture media and varying concentrations of SALT I. Proliferation was measured at 48-72 hours using an XTT-based assay (Roche Molecular Biochemicals; Indianapolis, Ind.) (Heinrich et al., Blood, Vol. 96, No. 3, pp. 925-932 (2000))
(§3) Representative results from one of six independent experiments are shown.

[2] = target: T1, constitutively activated mutant canine KIT (BR cells, Leucine to Proline substitution at amino acid 575) (Canis lupus familiaris, UniProt O97799, L579P); assay: KIT autophosphorylation in BR cells (anti-P-Tyr Western immunoblot); format: cell-based
T1 construct: Lysates prepared from BR or C2 cells were probed with an anti-P-Tyr antibody; endogenous in cells; host or cells: BR canine mastocytoma cell line
Description: (§4) Antibodies: A polyclonal rabbit anti-KIT antibody (c-kit Ab-1) was used at a dilution of 1:500 (c-kit Ab-1; Oncogene, Cambridge, Mass.). An anti-phosphotyrosine antibody (PY20) was used at a dilution of 1:1000 (PY20 Transduction Laboratories; Lexington, Ky.). Peroxidase conjugated goat anti-mouse antibody was used at a dilution of 1:5000 and goat anti-rabbit antibody at a dilution of 1:10,000 (Pierce; Rockford, Ill.).
as §1, with “region.” for “region. The translation of this ITD results in reduplication of amino acid residues at the 3′ end of exon 11 (London et al., Exp. Hematol., Vol. 27, No. 4, pp. 689-697 (1999); Ma et al., J. Invest. Dermatol., Vol. 112, No. 2, pp. 165-170 (1999)).”
(§5) Protein lysates: BR and C2 cells were washed×2 in PBS and then quiesced in Optimem (Gibco-BRL) at 37° C. for approximately 18 hours.
(§6) The KIT mutations in these cell lines are both located in the juxtamembrane domain and are homologous to mutations seen in human Gastrointestinal Stromal Tumors (GISTS) (Lux et al., Am. J. Pathol., Vol. 156, No. 3, pp. 791-795 (2000); Rubin et al., Cancer Res., Vol. 61, No. 22, pp. 8118-8121 (2001)). Lysates prepared from BR or C2 cells were probed with an anti-P-Tyr antibody and KIT receptor activation was assessed by measuring autophosphorylation.

[3] = tested on: C2 canine mastocytoma cells; assay: Proliferation of C2 cells, XTT-based assay; format: cell-based; conditions: C2 cells (data not shown)
[4] = tested on: C2 canine mastocytoma cells; assay: Proliferation of C2 cells, XTT-based assay; format: cell-based; conditions: for % (percent of maximal proliferation, cells only) / Averages (XTT-based assay reading): 72 hours; for Averages (XTT-based assay reading): triplicate
Description: as §1, §2, §3

[5] = tested on: cutaneous mast cell tumors; assay: Prospective case series of pet dogs with measurable cutaneous mast cell tumors; format: in vivo; conditions: 25 mg/kg PO QD x 60 days of SALT I, prospective example
Description: The study patients are pet dogs with measurable and histologically-confirmed mast cell tumors. Cases are limited to those with measurable lesions amenable to biopsy.
Eligibility criteria are: • Histologically-confirmed measurable cutaneous mast cell tumors • Cases will require serial biopsy with […] Keyes punch before and during therapy • Histological grade (II-intermediate or III-poorly differentiated) • Performance status 0 or I (Modified Karnofsky—Table 3) • Informed owner consent
Exclusion criteria are: • Concurrent cytotoxic chemotherapy • Prednisone and non-steroidal anti-inflammatory drugs may not be initiated within 30 days of the study; if prednisone or non-steroidal anti-inflammatory drugs have been administered for greater than 30 days they may be continued • Abnormal serum bile acid test (liver function)
Pretreatment evaluation of all cases include physical examination, complete blood count, buffy coat, serum biochemistry, urinalysis, serum bile acids (fasting and post-prandial), documentation of regional lymph node size, abdominal radiographs, and abdominal ultrasound. […]
The efficacy of COMPOUND I is assessed against measurable cutaneous mast cell tumors, using clinical endpoints. […]
Clinical endpoints include response rate of measurable tumors, objective response against measurable tumor, and time to progression of measurable tumor. All adverse side effects will be recorded.

[6] = tested on: constitutively activated mutant canine KIT (C2 cells, internal tandem duplication of the juxtamembrane region); assay: KIT autophosphorylation in C2 cells (anti-P-Tyr Western immunoblot); format: cell-based
Description: as §4
as §1, with “region.” for “region. The translation of this ITD results in reduplication of amino acid residues at the 3′ end of exon 11 (London et al., Exp. Hematol., Vol. 27, No. 4, pp. 689-697 (1999); Ma et al., J. Invest. Dermatol., Vol. 112, No. 2, pp. 165-170 (1999)).”
as §5, §6

CD34+ cord blood cells = assay: Cell production by CD34+ cells under stimulation with SCF (suspension culture); format: cell-based, human; conditions: STI571B at 10^-6 M
Description: (§7) More than 90% of the isolated cells were CD34-positive according to the flow cytometric analysis.
(§8) Serum-deprived liquid cultures are carried out in 24-well culture plates (#3047; Becton Dickinson). Twenty thousand CD34^+ cells are cultured in each well containing 2 mL of […]-medium supplemented with 1% BSA, 300 μg/mL fully iron-saturated human transferrin (approximately 98% pure, Sigma), 16 μg/mL soybean lecithin (Sigma), 9.6 μg/mL cholesterol (Nakalai Chemicals Ltd., Japan) and 20 ng/mL of SCF, 10 ng/mL of GM-CSF, 2 U/mL of EPO, 10 ng/mL of TPO, different concentrations of a COMPOUND OF THE INVENTION, alone or in combination. In order to examine the effects of a COMPOUND OF THE INVENTION on the SCF-dependent development of mast cells, 10-week cultured cells grown with 20 ng/mL of SCF from CD34^+ cord blood cells are used as target cells. Five to ten×10^4 10-week cultured cells are incubated for 2 weeks in 24-well culture plates containing 20 ng/mL of SCF with or without various concentrations of a COMPOUND OF THE INVENTION. The plates are incubated at 37° C. in a humidified atmosphere flushed with a mixture of 5% CO2, 5% O2 and 90% N2. When the culture continued until 4 weeks, half of the culture medium is replaced every 2 weeks with fresh medium containing the factor(s). The number of viable cells is determined by a trypan-blue exclusion test using a hemocytometer.

[7] = tested on: cultured human mast cells generated from CD34+ cord blood cells; assay: SCF-dependent growth of cultured human mast cells (suspension culture, trypan-blue viable cell count); format: cell-based
Description: as §7, §8

[8] = tested on: cultured mast cells grown under stimulation with SCF; assay: Detection of cellular apoptosis (PI flow cytometry, DNA gel electrophoresis)
[9] = membrane reprobed with anti-c-kit antibody

T1 sequence (O97799 28-979 L579P): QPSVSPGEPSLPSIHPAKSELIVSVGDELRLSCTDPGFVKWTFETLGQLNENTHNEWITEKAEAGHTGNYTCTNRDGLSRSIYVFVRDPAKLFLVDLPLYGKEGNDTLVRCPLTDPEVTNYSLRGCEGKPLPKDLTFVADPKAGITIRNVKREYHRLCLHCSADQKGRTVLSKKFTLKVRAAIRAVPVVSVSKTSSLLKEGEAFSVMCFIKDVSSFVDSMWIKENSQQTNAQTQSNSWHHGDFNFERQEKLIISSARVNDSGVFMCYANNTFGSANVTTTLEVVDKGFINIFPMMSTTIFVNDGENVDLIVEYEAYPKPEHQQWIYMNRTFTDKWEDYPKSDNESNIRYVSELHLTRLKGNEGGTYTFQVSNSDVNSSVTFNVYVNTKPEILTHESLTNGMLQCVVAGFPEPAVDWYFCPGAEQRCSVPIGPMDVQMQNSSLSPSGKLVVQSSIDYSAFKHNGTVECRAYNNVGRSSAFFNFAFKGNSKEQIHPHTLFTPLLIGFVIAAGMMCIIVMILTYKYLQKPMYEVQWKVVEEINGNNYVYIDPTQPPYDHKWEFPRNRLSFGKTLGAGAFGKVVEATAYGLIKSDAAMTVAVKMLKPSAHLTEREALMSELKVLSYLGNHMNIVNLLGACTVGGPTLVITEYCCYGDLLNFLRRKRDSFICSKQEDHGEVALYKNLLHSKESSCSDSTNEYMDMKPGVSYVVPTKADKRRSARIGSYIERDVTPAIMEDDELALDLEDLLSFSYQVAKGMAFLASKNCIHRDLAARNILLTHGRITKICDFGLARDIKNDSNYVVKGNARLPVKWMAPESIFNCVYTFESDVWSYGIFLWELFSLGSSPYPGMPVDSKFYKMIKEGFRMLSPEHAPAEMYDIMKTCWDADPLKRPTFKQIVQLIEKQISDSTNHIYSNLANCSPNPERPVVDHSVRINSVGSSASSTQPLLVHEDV

Compound: Cc1ccc(NC(=O)c2ccc(CN3CCN(C)CC3)cc2)cc1Nc1nccc(-c2cccnc2)n1 [COMPOUND I]
- morphologic observations of inhibitor treated cells ([1]; BR cells (data not shown)): changes consistent with apoptosis
- % (percent of maximal proliferation, cells only) ([1]; BR cells, 1 μM): 11%
- Averages (XTT-based assay reading) ([1]; BR cells, 1 μM): 0.105
- % (percent of maximal proliferation, cells only) ([1]; BR cells, 5 μM): 9%
- Averages (XTT-based assay reading) ([1]; BR cells, 5 μM): 0.083
- inhibition of proliferation ([1]; BR cells, 0.001-0.01 μM, 48-72 hours): Partial inhibition
- decrease of proliferation compared to cells treated with media only ([1]; BR cells, 0.1-10 μM, 48-72 hours): 90-95%
- % (percent of maximal proliferation, cells only) ([1]; BR cells, .001 μM): 84%
- Averages (XTT-based assay reading) ([1]; BR cells, .001 μM): 0.781
- % (percent of maximal proliferation, cells only) ([1]; BR cells, .01 μM): 52%
- Averages (XTT-based assay reading) ([1]; BR cells, .01 μM): 0.479
- % (percent of maximal proliferation, cells only) ([1]; BR cells, .1 μM): 11%
- Averages (XTT-based assay reading) ([1]; BR cells, .1 μM): 0.105
- inhibition of KIT autophosphorylation ([2]; 0.1 μM): Near complete inhibition
- inhibition of KIT autophosphorylation ([2]; 1.0 μM): complete inhibition
- inhibition of KIT autophosphorylation ([2]; 10 μM): complete inhibition
- autophosphorylation of c-kit ([2]; 0.001-0.01 μM): Limited autophosphorylation
- expression of c-kit protein [2, 9]: no change
- morphologic observations of inhibitor treated cells [3]: changes consistent with apoptosis
- % (percent of maximal proliferation, cells only) ([4]; 1 μM): 3%
- Averages (XTT-based assay reading) ([4]; 1 μM): 0.037
- % (percent of maximal proliferation, cells only) ([4]; 5 μM): 3%
- Averages (XTT-based assay reading) ([4]; 5 μM): 0.032
- inhibition of proliferation ([4]; 0.001-0.01 μM, 48-72 hours): Partial inhibition
- decrease of proliferation compared to cells treated with media only ([4]; 0.1-10 μM, 48-72 hours): 90-95%
- % (percent of maximal proliferation, cells only) ([4]; .001 μM): 86%
- Averages (XTT-based assay reading) ([4]; .001 μM): 1.065
- % (percent of maximal proliferation, cells only) ([4]; .01 μM): 61%
- Averages (XTT-based assay reading) ([4]; .01 μM): 0.754
- % (percent of maximal proliferation, cells only) ([4]; .1 μM): 2%
- Averages (XTT-based assay reading) ([4]; .1 μM): 0.028
- Objective Tumors Responses [5]: observed
- inhibition of KIT autophosphorylation ([6]; 0.1 μM): Near complete inhibition
- inhibition of KIT autophosphorylation ([6]; 1.0 μM): complete inhibition
- inhibition of KIT autophosphorylation ([6]; 10 μM): complete inhibition
- autophosphorylation of c-kit ([6]; 0.001-0.01 μM): Limited autophosphorylation
- expression of c-kit protein [6, 9]: no change

Compound: Cc1ccc(NC(=O)c2ccc(CN3CCN(C)CC3)cc2)cc1Nc1nccc(-c2cccnc2)n1 [STI571B, N-{5-[4-(4-methyl-piperazino-methyl)-benzoylamido]-2-methyl-phenyl}-4-(3-pyridyl)-2-pyrimidine-amine monomesylate]
- cell production by CD34+ cells under stimulation with SCF (CD34+ cord blood cells): markedly depresses
- number of viable cells ([7]; SCF plus STI571B, after day 2): declines in a time-dependent fashion
- number of viable cells ([7]; SCF plus STI571B, day 2): unchanged
- total cell number ([7]; SCF plus STI571B, day 14): negligible level
- progeny generation in culture with SCF ([7]; STI571B at 10^-6 M or higher, 10-week cultured mast cells, SCF): almost completely inhibits
- percentage of sub-diploid nuclei ([8]; SCF plus STI571B, over culture period): increases with the culture period
- DNA laddering on gel electrophoresis ([8]; cells exposed to SCF plus STI571B): DNA laddering
- programmed death of cultured mast cells ([8]; grown under stimulation with SCF): induces a programmed death
